# In patent publication US5430053A, “Isolation and structure of dictyostatin 1” (Arizona Board of Regents acting on behalf of Arizona State …, priority 1994, dated 1995):
# Entries after “also recorded” stand apart in the source; their conditions may differ. Read-outs that look alike come from different tables or passages of the source.
# What was measured:
# [1] = system: NCI H460 non-small cell lung; assay: NCI panel, NCI H460; type: cell-based, human
# Description: (§1) Only two hundred years ago, many diseases ravaged humankind. Many of these diseases now have been controlled or eradicated. In the development of the means to treat or control these diseases, work with the appropriate common experimental animals was of critical importance. With the various types of cancers, and with the HIV virus, such work is presently ongoing. The research for the treatment of various types of cancer is coordinated in the United States by the National Cancer Institute (NCI). NCI, as a government entity, has been charged with assisting, inter alia, anti-cancer research. To determine whether a substance has anti-cancer activity, NCI has established a variety of protocols, one of which involves testing the candidate substance against a cell line panel containing 60 human tumor cell lines. This protocol has been verified and is generally accepted throughout the scientific community. This protocol and the established statistical means of evaluating the results obtained therefrom have been fully described in the literature. See Principles & Practice of Oncology PPO Updates, Volume 3, Number 10, October 1989, by Michael R. Boyd, M.D., Ph.D., for an in depth description of the test protocol. […]
# [2] = system: OVCAR-3 ovarian; assay: NCI panel, OVCAR-3; type: cell-based, human
# Description: as §1
# [3] = system: A-498 renal; assay: NCI panel, A-498; type: cell-based, human
# Description: as §1
# [4] = system: KM 20L2 colon; assay: NCI panel, KM 20L2; type: cell-based, human
# Description: as §1
# [5] = system: P388 lymphocytic leukemia; assay: P388 lymphocytic leukemia cell line (PS system) growth inhibition; type: cell-based, murine
# [6] = system: SF-295 CNS; assay: NCI panel, SF-295; type: cell-based, human
# Description: as §1
# [7] = system: SK-MEL-5 melanoma; assay: NCI panel, SK-MEL-5; type: cell-based, human
# Description: as §1
# [8] = system: human cancer cell lines; assay: NCI panel of sixty human cancer cell lines; type: cell-based; details: for activity against human cancer cell lines (in words): NCI panel
# Description: Only two hundred years ago, many diseases ravaged humankind. Many of these diseases now have been controlled or eradicated. In the development of the means to treat or control these diseases, work with the appropriate common experimental animals was of critical importance. With the various types of cancers, and with the HIV virus, such work is presently ongoing. The research for the treatment of various types of cancer is coordinated in the United States by the National Cancer Institute (NCI). NCI, as a government entity, has been charged with assisting, inter alia, anti-cancer research. To determine whether a substance has anti-cancer activity, NCI has established a variety of protocols, one of which involves testing the candidate substance against a cell line panel containing 60 human tumor cell lines. This protocol has been verified and is generally accepted throughout the scientific community. This protocol and the established statistical means of evaluating the results obtained therefrom have been fully described in the literature. See Principles & Practice of Oncology PPO Updates, Volume 3, Number 10, October 1989, by Michael R. Boyd, M.D., Ph.D., for an in depth description of the test protocol. The statistical analysis of the test protocol is explained in "Display and Analysis of Patterns of Differential Activity of Drugs Against Human Tumor Cell Lines: Development of Means Graph and COMPARE Algorithm" Journal of the National Cancer Institute Reports Vol. 81, No. 14, Pg. 1088, Jul. 14, 1989, by K. D. Paull et al. The context of both of these references is specifically incorporated herein by this reference thereto.
compound,measurement,setting,value
C=C/C=C\C(C)C1OC(=O)/C=C\C=C\C(C)C(O)CC(O)/C=C\C(C)C(O)C(C)CC(C)CCC(O)C1C (stereo not drawn) [dictyostatin 1],activity against NCI H460 (in words),[1],active and selective
same,activity against OVCAR-3 (in words),[2],active and selective
same,activity against A-498 (in words),[3],active and selective
same,activity against KM 20L2 (in words),[4],active and selective
same,growth inhibition of murine P388 lymphocytic leukemia (in words),[5],strongly inhibit growth
same,IC50,"[5]; Mus musculus, P388, pure dictyostatin 1, read-out: P388 ED50",0.38 ng/mL
same,growth inhibition of murine P388 lymphocytic leukemia (in words),[5]; listed as Dictyostatin 1,phenomenally potent (and selective) activity; also recorded: strongly inhibit growth
same,activity against SF-295 (in words),[6],active and selective
same,activity against SK-MEL-5 (in words),[7],active and selective
same,activity against human cancer cell lines (in words),[8],strong cancer cell growth inhibitory properties; also recorded: remarkably potent and specific
same,activity against human cancer cell lines (in words),[8]; listed as Dictyostatin 1,phenomenally potent (and selective) activity; also recorded: strongly inhibit growth
same,NCI data (in words),"[8]; ovarian, CNS, renal, lung (non small cell), colon, and melanoma cells",extremely positive results
